Holding throughout (type): cell-based
For experiment [1], the target named is T1, human S1P4 receptor (S1PR4) (Homo sapiens, UniProt O95977).
T1 construct: host or cells: CHO-K1
T1 sequence (O95977 1-384): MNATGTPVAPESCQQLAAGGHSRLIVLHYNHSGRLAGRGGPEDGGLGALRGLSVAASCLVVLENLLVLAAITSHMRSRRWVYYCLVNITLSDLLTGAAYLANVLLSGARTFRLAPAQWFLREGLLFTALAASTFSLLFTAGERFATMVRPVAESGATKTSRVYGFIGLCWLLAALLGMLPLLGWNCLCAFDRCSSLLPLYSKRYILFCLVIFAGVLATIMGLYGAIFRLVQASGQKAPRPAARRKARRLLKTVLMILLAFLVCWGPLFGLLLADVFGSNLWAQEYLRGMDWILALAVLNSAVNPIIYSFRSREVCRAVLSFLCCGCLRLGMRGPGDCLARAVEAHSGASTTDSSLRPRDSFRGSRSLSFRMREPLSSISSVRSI
As to the kind of experiment: Intracellular Ca2+ release (method 1), agonist potency, S1P4. The following applies: CHO-K1 cells expressing human S1PR4. Put shortly:
(§1)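 CHO-K1 cells co-expressing the human S1P receptor, aequorin and Gq/i5 were loaded with Calcium 5 dye (1 h, 37° C), then equilibrated 45 min at RT in HBSS/20 mM Hepes/2.5 mM probenecid/0.1% BSA, pH 7.4. Fluorescence upon serially diluted compound fitted by 4-parameter logistic; EC50 and Emax normalized to phospho-fingolimod (100%).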

Experiment [2] deals with T2, human S1P3 receptor (S1PR3) (Homo sapiens, UniProt Q99500).
T2 construct: host or cells: CHO-K1
T2 sequence (Q99500 whole entry): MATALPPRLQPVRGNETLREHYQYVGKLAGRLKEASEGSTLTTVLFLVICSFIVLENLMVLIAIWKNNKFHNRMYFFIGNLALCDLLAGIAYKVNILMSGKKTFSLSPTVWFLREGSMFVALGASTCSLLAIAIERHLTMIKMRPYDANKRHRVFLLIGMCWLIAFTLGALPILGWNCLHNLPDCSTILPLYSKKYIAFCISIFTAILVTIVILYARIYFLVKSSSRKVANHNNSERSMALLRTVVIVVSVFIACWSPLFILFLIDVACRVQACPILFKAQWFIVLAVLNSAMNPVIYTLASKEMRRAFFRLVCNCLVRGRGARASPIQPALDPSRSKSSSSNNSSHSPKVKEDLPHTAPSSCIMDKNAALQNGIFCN
As to the kind of experiment: Intracellular Ca2+ release (method 1), agonist potency, S1P3. The conditions noted are these: CHO-K1 cells expressing human S1PR3. On the procedure: Agonistic activity and efficacy of compounds was assessed in recombinant cells using method 1 described below.
Agonist potency and efficacy were assessed by measurement of intracellular Ca^2+ release. Recombinant CHO-K1 cells (Euroscreen, Brussels, Belgium) expressing human S1PR5, S1PR1, S1PR3 or S1PR4 receptors, aequorin, and GTP binding protein Gq/i5 were cultured using a medium containing nutrient mixture F-12 Ham (Sigma-Aldrich) with 10% FBS, and 100 μg/mL gentamicin and equilibrated at 5% CO2.
15,000 cells in 20 μL medium were seeded into Biocoat poly-D-Lysine coated 384 well plates (Becton Dickinson #35-6663) and grown to 95% confluency after 24 h.
Culture medium was replaced by an assay buffer consisting of HBBS with Ca^2+ and Mg^2+ (Invitrogen #14025-050), 20 mmol/L Hepes (Sigma-Aldrich #H-3375), 2.5 mmol/L probenecid (Sigma-Aldrich #P-8761, and 0.1% BSA (Sigma-Aldrich #A-7030) pH 7.4. The Calcium 5 no-wash FLIPR assay kit (Molecular Devices #5000625) was performed as described in the kit instructions. Cells were incubated with Calcium 5 dye for 1 h at 37° C., 5% CO2 in the dark. After 45 min adaptation to RT assessment of agonist stimulation of intracellular Ca^2+ release was performed by addition of test compounds at various concentrations obtained by serial dilution. Phospho-fingolimod was used as positive control and reference agonist (intrinsic activity 100%).
Agonism of test compounds at the human S1Px receptors were characterized by the EC50 values (potencies) deduced from a nonlinear 4 parametric logistic curve fit to the measured fluorescence data after normalization to the lower and upper plateaus of the fitted reference agonist's (phospho-fingolimod)effect curve and by their efficacy (Emax) values represented by their maximum achievable effects in % of the reference agonist's efficacy, which is defined as an Emax of 100%.

In experiment [3] the target is T3, human S1P1 receptor (S1PR1) (Homo sapiens, UniProt P21453).
T3 construct: host or cells: CHO-K1
T3 sequence (P21453 whole entry): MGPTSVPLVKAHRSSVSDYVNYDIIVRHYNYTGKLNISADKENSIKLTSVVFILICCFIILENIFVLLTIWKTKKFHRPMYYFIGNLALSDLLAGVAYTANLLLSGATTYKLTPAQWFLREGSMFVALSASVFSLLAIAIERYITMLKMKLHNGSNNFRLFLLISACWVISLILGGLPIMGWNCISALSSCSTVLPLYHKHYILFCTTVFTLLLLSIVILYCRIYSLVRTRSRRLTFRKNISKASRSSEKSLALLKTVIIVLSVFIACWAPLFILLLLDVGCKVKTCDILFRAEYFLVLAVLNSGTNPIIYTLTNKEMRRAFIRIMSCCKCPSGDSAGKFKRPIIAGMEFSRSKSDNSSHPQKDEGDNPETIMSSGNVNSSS
As to the kind of experiment: Intracellular Ca2+ release (method 1), agonist potency, S1P1. The conditions noted are these: CHO-K1 cells expressing human S1PR1. Put shortly: as §1

Experiment [4] has as its target T4, human S1P5 receptor (S1PR5) (Homo sapiens, UniProt Q9H228).
T4 construct: host or cells: CHO-K1
The experiment in a line: Intracellular Ca2+ release (method 1), agonist potency and efficacy, S1P5. The following applies: for Emax: maximum effect in % of reference agonist phospho-fingolimod (100%), read-out: hS1P5 EMax; for EC50: recombinant CHO-K1 cells expressing human S1PR5, aequorin, Gq/i5, Ca2+ release, read-out: S1P5 EC50 range. Put shortly: as §1

The record followed here is patent US20210147381A1, “1,2,3,4-SUBSTITUTED QUINOLINE COMPOUNDS AS SIP MODULATORS” (AbbVie Deutschland GmbH & Co. KG, priority 2017, published 2021).

Molecules are shown by their SMILES. Counter-ions that a name gives are not always drawn.

T4 sequence (Q9H228 whole entry): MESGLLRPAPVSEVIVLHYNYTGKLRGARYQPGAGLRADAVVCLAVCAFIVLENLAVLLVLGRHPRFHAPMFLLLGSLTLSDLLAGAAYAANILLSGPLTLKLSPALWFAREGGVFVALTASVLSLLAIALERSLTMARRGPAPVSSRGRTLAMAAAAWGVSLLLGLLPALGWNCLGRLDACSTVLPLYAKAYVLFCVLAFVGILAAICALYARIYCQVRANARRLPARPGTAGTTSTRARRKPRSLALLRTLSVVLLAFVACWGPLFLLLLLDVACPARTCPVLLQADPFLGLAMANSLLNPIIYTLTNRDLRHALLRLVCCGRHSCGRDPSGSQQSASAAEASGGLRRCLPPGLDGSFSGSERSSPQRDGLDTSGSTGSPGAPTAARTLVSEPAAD

In general, EC50 refers to the concentration giving half of the maximal effect. As a reminder, the Emax is the size of the effect at its maximum, as opposed to the concentration needed. On to `O=C(O)CCN1Cc2ccc(C#Cc3cccc(F)c3F)cc2C2(CC2)C1` [Compound 10, 3-(6′-((2,3-Difluorophenyl)ethynyl)-1′H-spiro[cyclopropane-1,4′-isoquinolin]-2′(3′H)-yl)propanoic acid], for which the EC50 was 10 to 100 nM in experiment [1], more than 1000 nM in experiment [2], more than 1000 nM in experiment [3] (cells given as bound) and less than 10 nM in experiment [4]. In addition, the Emax in experiment [4] was more than 100%.
As to `CC(C)Oc1ccc(C#Cc2ccc3c(c2)C2(CC2)CN(CCCC(=O)O)C3)cc1` [Compound 46, 4-(6′-((4-isopropoxyphenyl)ethynyl)-1′H-spiro[cyclopropane-1,4′-isoquinolin]-2′(3′H)-yl)butanoic acid], the half-maximal effective concentration (EC50) was more than 1000 nM in experiment [1] (cells given as bound), more than 1000 nM in experiment [2], more than 1000 nM in experiment [3] (cells given as bound) and less than 10 nM in experiment [4]. For the same compound, in experiment [4], the maximal effect (Emax) is more than 100%.
In the case of `O=C(O)CCCN1Cc2ccc(OCc3ccccc3OC(F)(F)F)cc2C2(CC2)C1` [Compound 14, 4-(6′-((2-(Trifluoromethoxy)benzyl)oxy)-1′H-spiro[cyclopropane-1,4′-isoquinolin]-2′(3′H)-yl)butanoic acid], the concentration giving a half-maximal response (EC50) was 100 to 1000 nM in experiment [1], more than 1000 nM in experiment [2], more than 1000 nM in experiment [3] (cells given as bound) and less than 10 nM in experiment [4]. Also, in experiment [4], the maximal response (Emax) lay within 50 to 100%.
Consider `CCCn1cc(C#Cc2ccc3c(c2)C2(CC2)CN(CCC(=O)O)C3)cn1` [Compound 42, 3-(6′-((1-propyl-1H-pyrazol-4-yl)ethynyl)-1′H-spiro[cyclopropane-1,4′-isoquinolin]-2′(3′H)-yl)propanoic acid acetic acid salt (1:1)], for which the EC50 was more than 1000 nM in experiment [1] (cells given as bound), more than 1000 nM in experiment [2], more than 1000 nM in experiment [3] (cells given as bound) and 1000 to 10000 nM in experiment [4]. Besides, the maximum response (Emax) in experiment [4] lay in the range of 50 to 100%.
`CCOc1ccc(C#Cc2ccc3c(c2)C2(CC2)CN(CCCC(=O)O)C3)cc1` [Compound 3, 2′-(3-carboxypropyl)-6′-((4-ethoxyphenyl)ethynyl)-2′,3′-dihydro-1′H-spiro[cyclopropane-1,4′-isoquinolin]-2′-ium 2,2,2-trifluoroacetate]: the EC50 in experiment [1] (cells given as bound) is more than 1000 nM; in experiment [2] it was more than 1000 nM; in experiment [3] it was 100 to 1000 nM; in experiment [4] it was less than 10 nM. Besides, in experiment [4], the maximal response (Emax) is 50 to 100%.
Take `CCc1cccc(Cl)c1COc1ccc2c(c1)C1(CC1)CN(C(C)C(=O)O)C2` (centres unmarked) [Compound 28, 2-(6′-((2-Chloro-6-ethylbenzyl)oxy)-1′H-spiro[cyclopropane-1,4′-isoquinolin]-2′(3′H)-yl)propanoic acid]: the EC50 in experiment [1] was 100 to 1000 nM; in experiment [2] it was more than 1000 nM; in experiment [3] (cells given as bound), more than 1000 nM; in experiment [4], 10 to 100 nM. Besides, the Emax in experiment [4] lay in the range of 50 to 100%.
`Cc1ccccc1COc1ccc2c(c1)C1(CC1)CN(CCCC(=O)O)C2` [Compound 22, 4-(6′-((2-Methylbenzyl)oxy)-1′H-spiro[cyclopropane-1,4′-isoquinolin]-2′(3′H)-yl)butanoic acid]: the concentration giving a half-maximal response (EC50) is 100 to 1000 nM in experiment [1], more than 1000 nM in experiment [2], more than 1000 nM in experiment [3] (cells given as bound) and less than 10 nM in experiment [4]. The Emax in experiment [4] was in the range of 50 to 100%.
On to `CCOc1ccc(C#Cc2ccc3c(c2)C2(CC2)CN(CCCC(=O)O)C3)cc1F` [Compound 45, 4-(6′-((4-ethoxy-3-fluorophenyl)ethynyl)-1′H-spiro[cyclopropane-1,4′-isoquinolin]-2′(3′H)-yl)butanoic acid], for which the EC50 in experiment [1] (cells given as bound) was more than 1000 nM; in experiment [2], more than 1000 nM; in experiment [3] (cells given as bound), more than 1000 nM; in experiment [4], less than 10 nM. The maximal effect (Emax) in experiment [4] lay within 50 to 100%.
`CCOc1ccc(C#Cc2ccc3c(c2)C2(CC2)CN(CCC(=O)O)C3)cc1` [Compound 34, 3-(6′-((4-ethoxyphenyl)ethynyl)-1′H-spiro[cyclopropane-1,4′-isoquinolin]-2′(3′H)-yl)propanoic acid acetic acid salt (1:1)]: the EC50 is more than 1000 nM in experiment [1] (cells given as bound), more than 1000 nM in experiment [2], more than 1000 nM in experiment [3] (cells given as bound) and less than 10 nM in experiment [4]. Moreover, the maximal response (Emax) in experiment [4] lay in the range of 50 to 100%.
As for `O=C(O)CCN1Cc2ccc(C#Cc3ccccc3Cl)cc2C2(CC2)C1` [Compound 35, 3-(6′-((2-chlorophenyl)ethynyl)-1′H-spiro[cyclopropane-1,4′-isoquinolin]-2′(3′H)-yl)propanoic acid], the half-maximal effective concentration (EC50) was 100 to 1000 nM in experiment [1], more than 1000 nM in experiment [2], more than 1000 nM in experiment [3] (cells given as bound) and less than 10 nM in experiment [4]. In addition, the maximum response (Emax) in experiment [4] lay within 50 to 100%.
With `CC(CC(=O)O)CN1Cc2ccc(C#Cc3c(F)cccc3F)cc2C2(CC2)C1` (centres unmarked) [Compound 58, 4-(6′-((2,6-difluorophenyl)ethynyl)-1′H-spiro[cyclopropane-1,4′-isoquinolin]-2′(3′H)-yl)-3-methylbutanoic acid], the EC50 in experiment [1] is 100 to 1000 nM; in experiment [2], more than 1000 nM; in experiment [3] (cells given as bound), more than 1000 nM; in experiment [4] it was less than 10 nM. Moreover, the Emax in experiment [4] is 50 to 100%.
For `O=C(O)CCCN1Cc2ccc(OCc3ccc(F)c(F)c3)cc2C2(CC2)C1` [Compound 18, 4-(6′-((3,4-Difluorobenzyl)oxy)-1′H-spiro[cyclopropane-1,4′-isoquinolin]-2′(3′H)-yl)butanoic acid], the EC50 was 100 to 1000 nM in experiment [1], more than 1000 nM in experiment [2], more than 1000 nM in experiment [3] (cells given as bound) and 10 to 100 nM in experiment [4]. Also, the maximal effect (Emax) in experiment [4] was less than 50%.
`CC(C)c1ccc(C#Cc2ccc3c(c2)C2(CC2)CN(CCCC(=O)O)C3)cc1` [Compound 1, 2′-(3-carboxypropyl)-6′-((4-isopropylphenyl)ethynyl)-2′,3′-dihydro-1′H-spiro[cyclopropane-1,4′-isoquinolin]-2′-ium 2,2,2-trifluoroacetate]: the EC50 in experiment [1] (cells given as bound) was more than 1000 nM; in experiment [2], more than 1000 nM; in experiment [3] it was 100 to 1000 nM; in experiment [4], less than 10 nM. In addition, the maximal effect (Emax) in experiment [4] is 50 to 100%.
For `O=C(O)CCCN1Cc2ccc(OCc3ccccc3F)cc2C2(CC2)C1` [Compound 19, 4-(6′-((2-Fluorobenzyl)oxy)-1′H-spiro[cyclopropane-1,4′-isoquinolin]-2′(3′H)-yl)butanoic acid], the EC50 is more than 1000 nM in experiment [1] (cells given as bound), more than 1000 nM in experiment [2], more than 1000 nM in experiment [3] (cells given as bound) and less than 10 nM in experiment [4]. Also, in experiment [4], the Emax is 50 to 100%.
With `O=C(O)CCCN1Cc2ccc(OCc3cccc(F)c3F)cc2C2(CC2)C1` [Compound 21, 4-(6′-((2,3-Difluorobenzyl)oxy)-1′H-spiro[cyclopropane-1,4′-isoquinolin]-2′(3′H)-yl)butanoic acid], the concentration giving a half-maximal response (EC50) is 100 to 1000 nM in experiment [1], more than 1000 nM in experiment [2], more than 1000 nM in experiment [3] (cells given as bound) and 10 to 100 nM in experiment [4]. In addition, in experiment [4], the Emax is less than 50%.
Consider `O=C(O)CCCN1Cc2ccc(C#Cc3ccc(OC(F)(F)F)cc3)cc2C2(CC2)C1` [Compound 48, 4-(6′-((4-(trifluoromethoxy)phenyl)ethynyl)-1′H-spiro[cyclopropane-1,4′-isoquinolin]-2′(3′H)-yl)butanoic acid], for which the EC50 in experiment [1] (cells given as bound) was more than 1000 nM; in experiment [2], more than 1000 nM; in experiment [3] (cells given as bound) it was more than 1000 nM; in experiment [4] it was 10 to 100 nM. The maximal effect (Emax) in experiment [4] lay in the range of 50 to 100%.
